Reference: US20230329282A1, “Application of 1-Deoxynojirimycin in Feed for Improving Nutritional Value and Sensory Effect of Rabbit Meat Products” (priority 2023, published 2023)
Marks after values point to notes of the source that are not given here.

What was measured:
Format in all cases: in vivo
[1] = system: New Zealand white rabbits; assay: Nutritional ingredients of muscle (moisture, crude protein, ether extract); details: 28 d
Excerpt: (§1) The single-factor completely randomized test design is adopted. 36 45-day-old healthy New Zealand white rabbits (male) with the average weight of (1.05±0.04) kg are selected and randomly divided into 3 groups, and each group has 12 replicates with 1 rabbit per replicate. A control group is fed with a basal diet, an L-DNJ group is fed with the basal diet+0.14 g/kg DNJ, and an H-DNJ group is fed with the basal diet+0.28 g/kg DNJ. The diet is uniformly mixed to be prepared into cylindrical particles with the diameter of 6 mm and the length of 1 cm. The preliminary trial period is 14 d, and the trial period is 28 d.
The rabbits are deprived of food (but not water) on the night of the end of the experiment, and after weighing in the next morning, 8 rabbits with similar weight are selected from each group and slaughtered. The longissimus dorsi muscles of the rabbits are collected, the pH values of the front, middle and back parts of the longissimus dorsi muscle are measured with a pH meter (Bante221, Shanghai Bante Instrument Co., Ltd.) having the function of automatic temperature compensation and then measured again after standing at room temperature for 24 h, and the pH decreased values of the muscle within 24 h are calculated. The pH value is the average value of the three readings. The meat color (L*, α*, b*) is measured with a TC-PIIG automatic color difference meter (Beijing Aoyike Photoelectric Instrument Co., Ltd.) on the muscle surface. The detection light source is D65 according to CIE laboratory standards, and the measurement area is 8 mm in diameter. The average value is obtained by making three measurements at each detection point.
The contents of moisture, crude protein and ether extract in the muscle are measured according to the method proposed by Zhang Liying (Zhang Liying. Feed analysis and feed quality inspection technology [M]. 4th Ed. Beijing: China Agricultural University Press, 2016).

[2] = system: New Zealand white rabbits; assay: Growth performance (ADFI, ADG, FCR); details: 28 d trial
Excerpt: as §1
In the morning of the first day of the trial period and the second day after the trial, the experimental rabbits are weighed once on an empty stomach, and the average daily gain (ADG) of each rabbit is calculated. Leftovers are collected and weighed before feeding, and the average daily feed intake (ADFI) of each rabbit is calculated. The ratio of the average daily feed intake to the average daily gain is the feed conversion rate (FCR). The calculation formula is as follows: • ADG=(final weight−initial weight)/test days; • ADFI=total feed intake/test days; • FCR=ADFFADG.

[3] = system: New Zealand white rabbits; assay: Apparent digestibility of nutrients, total collection method; details: feces collected 3 d from day 14
Excerpt: as §1
On the 14th day of the test, 8 experimental rabbits with similar weight are randomly selected from each group and transferred to metabolism cages for digestion and metabolism tests. The digestion and metabolism tests are conducted by the total collection method. All fecal samples of the experimental rabbits are collected for 3 consecutive days, and the contents of nutrients in the diet and fecal samples are measured according to the method in the book written by Zhang Liying. The calculation formula is: apparent digestibility of a nutrient (%)=(content of the nutrient in diet−content of the nutrient in feces)/content of the nutrient in diet×100.

[4] = H-DNJ: basal diet+0.28 g/kg DNJ
[5] = L-DNJ: basal diet+0.14 g/kg DNJ

OC[C@H]1NC[C@H](O)[C@@H](O)[C@@H]1O [DNJ, 1-deoxynojirimycin]
Nutritional ingredient of muscle: Crude protein (CP) [1, 4]: 22.18
Nutritional ingredient of muscle: Ether extract (EE) [1, 4]: 0.60^c
Nutritional ingredient of muscle: Moisture [1, 4]: 75.20
Nutritional ingredient of muscle: Crude protein (CP) [1, 5]: 22.09
Nutritional ingredient of muscle: Ether extract (EE) [1, 5]: 2.50^b
Nutritional ingredient of muscle: Moisture [1, 5]: 75.93
Average daily feed intake (ADFI) [2, 4]: 140.46
Average daily gain (ADG) [2, 4]: 32.66 g/day
Feed conversion rate (FCR) [2, 4]: 0.24 g/g
Average daily feed intake (ADFI) [2, 5]: 145.33
Average daily gain (ADG) [2, 5]: 36.18 g/day
Feed conversion rate (FCR) [2, 5]: 0.25 g/g
Apparent digestibility of Acid detergent fiber (ADF) [3, 4]: 14.88%
Apparent digestibility of Crude ash [3, 4]: 42.23%
Apparent digestibility of Crude fiber (CF) [3, 4]: 14.56%
Apparent digestibility of Crude protein (CP) [3, 4]: 76.25ª %
Apparent digestibility of Dry matter (DM) [3, 4]: 60.79^b %
Apparent digestibility of Ether extract (EE) [3, 4]: 78.35^b %
Apparent digestibility of Neutral detergent fiber [3, 4]: 20.68%
Apparent digestibility of Acid detergent fiber (ADF) [3, 5]: 12.34%
Apparent digestibility of Crude ash [3, 5]: 43.44%
Apparent digestibility of Crude fiber (CF) [3, 5]: 13.54%
Apparent digestibility of Crude protein (CP) [3, 5]: 75.17^ab %
Apparent digestibility of Dry matter (DM) [3, 5]: 61.35^ab %
Apparent digestibility of Ether extract (EE) [3, 5]: 79.84^ab %
Apparent digestibility of Neutral detergent fiber [3, 5]: 21.02%
